Earlier results as cited in patent US11278622B2, “Ceftolozane antibiotic compositions” (Merck Sharp & Dohme Corp., priority 2013, dated 2022).

Test system: P. aeruginosa

MIC90: ≤ 2 µg/mL
SMILES: Cn1c(N)c(NC(=O)NCCN)c[n+]1CC1=C(C(=O)O)N2C(=O)[C@@H](NC(=O)/C(=N\OC(C)(C)C(=O)O)c3nsc(N)n3)[C@H]2SC1 [ceftolozane, (6R,7R)-3-[(5-amino-4-{[(2-aminoethyl)carbamoyl]amino}-1-methyl-1H-pyrazol-2-ium-2-yl)methyl]-7-({(2Z)-2-(5-amino-1,2,4-thiadiazol-3-yl)-2-[(1-carboxy-1-methylethoxy)imino]acetyl}amino)-8-oxo-5-thia-1-azabicyclo[4.2.0]oct-2-ene-2-carboxylate]
